This is an account of results in article PMC7667546 (Iranian Journal of Pharmaceutical Research : IJPR, 2020).

Values after ≈ are worked out from the molar mass of the structure shown. Values joined by “and” are separate entries in the source; they are usually repeats but may differ in a detail not shown here. Equal entries are not always repeated. Structures can show the parent of a compound that is named as a salt. Where two headings read alike, the source gives them in different places. A value given as a limit tells only on which side of the number the result lay.

Assay [1] deals with T1, urease (Canavalia ensiformis, UniProt P07374).
T1 construct: purchased Sigma (Germany) Type III, powder, 15,000-50,000 units/g solid
The assay is described as follows: biochemical. As to conditions: N.A. = not active; for Equivalent Urease (µg thiourea activity/mg compound): mean ± S.D.; for inhibition at 10 µg/mL: read-out: Inhibition (%) Urease, 10µg/mL; for inhibition at 10 µg/mL / Inhibition (%) Urease: mean ± S.D. of three measurements; for Inhibition (%) Urease: 10µg/mL. Also on record: species or system Canavalia ensiformis (Jack bean). The source says:
(§1) Details of all biological activity and molecular modeling studies are given as supplementary material. The enzyme activities of the extracts were studied by observing urease, tyrosinase acetyl- and butyryl-cholinesterase inhibition activities ([22]-[25]). The ligands were then applied with partial atomic charges derived by ﬁtting Antechamber obtained by electronic structure calculation module in AMBER and assigned the AM1-BCC charges ([26]-[29]).

Assay [2] addresses T2, acetylcholinesterase (AChE) (Homo sapiens, UniProt P22303).
T2 construct: purchased Sigma-Aldrich (Steinheim, Germany)
Nature of the assay: biochemical. As to conditions: for inhibition at 10 µg/mL: read-out: Inhibition (%) AChE. How it is done:
as §1
(§2) All compounds were assayed in-vitro against AChE and BChE at 100-0.1 µg/mL.

The subject of assay [3] is BChE. Also noted: method as in Ramirez et al. ([39]). The conditions noted are these: ref Ramirez et al. ([39]); read-out: IC50 against BChE; cited from earlier work.
In assay [4] the target is T3, butyrylcholinesterase (BChE) (Homo sapiens, UniProt P06276).
T3 construct: purchased Sigma-Aldrich (Steinheim, Germany)
The assay is described as follows: Butyrylcholinesterase inhibition in vitro. The class given is biochemical. As to conditions: for inhibition at 10 µg/mL: read-out: Inhibition (%) BChE; for IC50: assayed at 100-0.1 µg/mL, mean ± S.D. The procedure:
as §1, §2

For assay [5], the system named is tyrosinase. Nature of the assay: Tyrosinase inhibition in vitro. In kind it is biochemical, mushroom. The conditions noted are these: N.A. = not active; for Inhibition (%) Tyrosinase: 10µg/mL, mean ± S.D. of three measurements; for Equivalent Tyrosinase (µg kojic acid activity/mg compound): mean ± S.D.
Excerpt: as §1

In assay [6] the test system is BChE. Also on record: method as in Senol et al (2017). The conditions noted are these: ref Senol et al (2017); cited from earlier work.
The mark [7] stands for this setting: 10µg/mL, mean ± S.D. of three measurements, N.A. = not active.
Where [8] appears, read: assayed at 100-0.1 µg/mL, mean ± S.D., N.A. = not active, read-out: IC50 AChE (converted).
[9] abbreviates: read-out: IC50 BChE (converted).

T1 sequence (P07374 whole entry, looked up): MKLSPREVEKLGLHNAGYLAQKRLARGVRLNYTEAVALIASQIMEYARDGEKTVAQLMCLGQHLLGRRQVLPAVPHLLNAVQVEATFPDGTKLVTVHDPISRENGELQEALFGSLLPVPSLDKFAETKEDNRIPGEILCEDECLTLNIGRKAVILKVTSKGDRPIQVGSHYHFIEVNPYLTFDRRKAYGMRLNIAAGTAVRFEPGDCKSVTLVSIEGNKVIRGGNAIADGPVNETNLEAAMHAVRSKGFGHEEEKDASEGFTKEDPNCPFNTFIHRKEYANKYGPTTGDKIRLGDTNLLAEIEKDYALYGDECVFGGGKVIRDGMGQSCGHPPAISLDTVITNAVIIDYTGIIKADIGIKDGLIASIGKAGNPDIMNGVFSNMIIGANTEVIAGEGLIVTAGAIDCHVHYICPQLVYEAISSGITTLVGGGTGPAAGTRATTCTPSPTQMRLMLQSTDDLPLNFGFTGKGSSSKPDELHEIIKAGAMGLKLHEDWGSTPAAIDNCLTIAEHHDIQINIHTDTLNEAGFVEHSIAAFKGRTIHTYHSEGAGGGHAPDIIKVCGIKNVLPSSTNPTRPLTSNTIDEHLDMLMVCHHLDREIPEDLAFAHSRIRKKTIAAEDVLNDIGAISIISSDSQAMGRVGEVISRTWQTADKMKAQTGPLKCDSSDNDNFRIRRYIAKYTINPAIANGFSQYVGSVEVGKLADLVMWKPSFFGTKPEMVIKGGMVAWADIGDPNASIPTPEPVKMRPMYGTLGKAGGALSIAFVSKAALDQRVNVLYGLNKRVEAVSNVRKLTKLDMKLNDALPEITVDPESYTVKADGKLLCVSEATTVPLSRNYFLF
T3 sequence (P06276 29-602): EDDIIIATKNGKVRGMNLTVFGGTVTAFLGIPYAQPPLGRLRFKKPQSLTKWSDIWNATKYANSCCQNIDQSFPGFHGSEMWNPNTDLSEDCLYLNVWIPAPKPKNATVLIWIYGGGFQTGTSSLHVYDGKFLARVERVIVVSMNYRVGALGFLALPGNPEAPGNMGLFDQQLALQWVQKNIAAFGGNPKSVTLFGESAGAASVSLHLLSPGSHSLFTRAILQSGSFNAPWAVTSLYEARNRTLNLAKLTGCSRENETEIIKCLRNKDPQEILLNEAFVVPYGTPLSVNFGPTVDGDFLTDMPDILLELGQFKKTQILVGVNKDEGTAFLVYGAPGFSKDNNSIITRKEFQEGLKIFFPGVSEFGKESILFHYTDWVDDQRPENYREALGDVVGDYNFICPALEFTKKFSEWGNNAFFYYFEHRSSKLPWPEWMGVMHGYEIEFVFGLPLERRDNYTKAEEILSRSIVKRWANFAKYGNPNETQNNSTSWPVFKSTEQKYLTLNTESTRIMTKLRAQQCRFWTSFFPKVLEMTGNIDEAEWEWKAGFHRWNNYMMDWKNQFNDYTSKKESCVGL
T2 sequence (P22303 32-614, species assumed): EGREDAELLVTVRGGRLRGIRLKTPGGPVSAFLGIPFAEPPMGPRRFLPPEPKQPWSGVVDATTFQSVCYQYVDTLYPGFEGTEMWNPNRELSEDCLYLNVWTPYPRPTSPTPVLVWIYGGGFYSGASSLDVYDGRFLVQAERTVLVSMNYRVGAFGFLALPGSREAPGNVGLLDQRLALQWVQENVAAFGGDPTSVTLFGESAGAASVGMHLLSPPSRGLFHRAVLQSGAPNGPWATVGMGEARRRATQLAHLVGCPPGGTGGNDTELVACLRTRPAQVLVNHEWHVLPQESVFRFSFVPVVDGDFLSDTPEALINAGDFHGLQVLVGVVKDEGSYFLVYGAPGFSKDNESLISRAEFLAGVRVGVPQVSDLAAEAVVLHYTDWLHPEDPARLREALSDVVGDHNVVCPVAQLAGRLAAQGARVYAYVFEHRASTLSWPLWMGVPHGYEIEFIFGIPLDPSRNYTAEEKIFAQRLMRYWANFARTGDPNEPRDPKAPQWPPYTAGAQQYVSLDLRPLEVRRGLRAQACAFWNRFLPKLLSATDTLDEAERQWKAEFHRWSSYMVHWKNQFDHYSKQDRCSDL

`CC(C)c1cc2c(c(O)c1O)[C@@]13CCCC(C)(C)[C@@H]1C[C@@H]2OC3=O` [Compound 9, Carnosol]: the “Equivalent Urease (µg thiourea activity/mg compound)” value (shortened to “Equivalent Urease”) in assay [1] was 26.60±0.03 µg thiourea activity/mg compou. Also, the values for the inhibition at 10 µg/mL in assay [1], in assay [2] (setting [7]) and in assay [4] (setting [7]) were 16.1 ± 0.42%, 47.6 ± 23% and 57.99 ± 0.15%, respectively. For the same compound, the IC50 in assay [2] (setting [8]) was 33.7 µM; in assay [3] it was 5.1 µM; in assay [4] (setting [9]), 11.9 µM and 12.5 µM.
In the case of `O=c1cc(CO)occ1O` [Kojic acid, reference compound], the “Inhibition (%) Tyrosinase” value in assay [5] amounted to 69.07±0.38%.
For the compound `O=C(/C=C/c1ccc(O)c2c1[C@H](C(=O)O[C@H](Cc1ccc(O)c(O)c1)C(=O)O)[C@@H](c1ccc(O)c(O)c1)O2)O[C@H](Cc1ccc(O)c(O)c1)C(=O)O` [Compound 3, Salvianolic acid B], the “Inhibition (%) Urease” value in assay [1] came out at 45.52±0.68%. Also, the “Equivalent Urease” value in assay [1] was 192.26±0.21 µg thiourea activity/mg compou. The inhibition at 10 µg/mL in assay [1] was 49.83 ± 0.27%; in assay [2] (setting [7]), 10.11 ± 0.08%; in assay [4] (setting [7]), 49.83 ± 0.27%. Besides, the results for the IC50 in assay [2] and in assay [4] (IC50 BChE) were greater than 139 µM and 14.6 µM, respectively.
In the case of `Cc1cccc2c3c(ccc12)C1=C(C(=O)C3=O)[C@@H](C)CO1` [Compound 6, Dihydrotanshinone I], the IC50 is 5.39 µM in assay [2] and 1.8 µM in assay [4] (IC50 BChE). Further, the inhibition at 10 µg/mL was 64.54 ± 0.36% in assay [2] and 87.19 ± 0.23% in assay [4]. For the same compound, in assay [6], the “IC50 value (BChE)” value is given as 1.71 µg/mL (≈ 6.14 µM).
Turning to `O=C(O)C(O)Cc1ccc(O)c(O)c1` (stereo not drawn) [Compound 11, Danshensu Salt], in assay [5], the “Inhibition (%) Tyrosinase” value is on record as 6.20±0.08% and the “Equivalent Tyrosinase (µg kojic acid activity/mg compound)” value (“Equivalent Tyrosinase” for short) was 48.67±0.23 µg kojic acid activity/mg compound. In assay [4] (IC50 BChE), this compound showed an IC50 of 122 µM. The inhibition at 10 µg/mL in assay [4] amounted to 35.37 ± 0.13%.
For `O=C(/C=C/c1ccc(O)c(O)c1)O[C@H](Cc1ccc(O)c(O)c1)C(=O)O` [Compound 1, Rosmarinic acid], the inhibition at 10 µg/mL in assay [2] (setting [7]) turned out to be 20.2 ± 0.21%; in assay [4], 42.76 ± 0.32%. Further, the IC50 in assay [2] (setting [8]) was greater than 278 µM; in assay [4] (IC50 BChE) it was 35.4 µM. The “Inhibition (%) Tyrosinase” value in assay [5] came out at 12.11±0.02%. For the same compound, in assay [5], the “Equivalent Tyrosinase” value was 105.58±0.18 µg kojic acid activity/mg compound.
For `NC(N)=S` [Thiourea, thiourea, reference compound], in assay [1], the “Inhibition (%) Urease” value is on record as 75.14±1.34%.
In the case of `COc1cc2c(cc1OC)C(=O)C(CC1CCN(Cc3ccccc3)CC1)C2` (stereo not drawn) [donezepil, reference compound], the half-maximal inhibitory concentration (IC50) in assay [3] is […].
Regarding `CC(C)c1cc2c(c(O)c1O)[C@@]1(C(=O)O)CCCC(C)(C)[C@@H]1CC2` [Compound 8, Carnosic Acid], in assay [1], the “Equivalent Urease” value is given as 62.12±0.07 µg thiourea activity/mg compou. Moreover, the inhibition at 10 µg/mL in assay [1] is 22.42 ± 0.15%; in assay [2] (setting [7]), 38 ± 0.96%; in assay [4], 58.5 ± 1.18%. Besides, the IC50 in assay [2] (setting [8]) was 95.7 µM; in assay [4] (IC50 BChE), 12.4 µM. Further, the “Inhibition (%) Tyrosinase” value in assay [5] came out at 5.92±0.06%. The “Equivalent Tyrosinase” value in assay [5] is 45.93±0.71 µg kojic acid activity/mg compound.
As for `O=C(/C=C/c1ccc(O)c(O)c1/C=C/c1ccc(O)c(O)c1)O[C@H](Cc1ccc(O)c(O)c1)C(=O)O` [Compound 4, Salvianolic acid A], the half-maximal inhibitory concentration (IC50) in assay [2] was 46.6 µM; in assay [4] (IC50 BChE) it was 97.7 µM. In addition, the inhibition at 10 µg/mL in assay [2] (setting [7]) came to 38.82 ± 0.12%; in assay [4] (setting [7]), 27.49 ± 0.08%.
Turning to `COc1ccc2c3c1O[C@H]1C[C@@H](O)C=C[C@@]31CCN(C)C2` [Galanthamine, galanthamine hydrobromide, reference compound], in assay [4], the inhibition at 10 µg/mL turned out to be 67.52 ± 0.41%.
`Cc1coc2c1C(=O)C(=O)c1c-2ccc2c(C)cccc12` [Compound 7, Tanshinone I]: in assay [1], the “Equivalent Urease” value is 174.73±0.19 µg thiourea activity/mg compou and the inhibition at 10 µg/mL was 42.4 ± 0.85%. Moreover, in assay [2], inhibition was half-maximal at 138 µM (IC50) and the inhibition at 10 µg/mL worked out at 31.3 ± 0.72%. Moreover, in assay [5], the “Inhibition (%) Tyrosinase” value is on record as 39.82±1.16% and the “Equivalent Tyrosinase” value is given as 372.86±2.47 µg kojic acid activity/mg compound. In assay [4] (IC50 BChE), this compound had an IC50 of 100 µM. Moreover, in assay [4], the inhibition at 10 µg/mL is 33 ± 0.86%.
Take `COc1ccc(-c2cc(=O)c3c(O)c(OC)c(OC)cc3o2)cc1` [Compound 2, Salvigenin]: the inhibition at 10 µg/mL in assay [2] (setting [7]) came to 22.72 ± 0.14%; in assay [4] (setting [7]) it was 43.13 ± 0.21%. Besides, the IC50 in assay [2] (setting [8]) was greater than 305 µM; in assay [4] (setting [9]), 34.9 µM.
As for `C[C@H]1COC2=C1C(=O)C(=O)c1c2ccc2c1CCCC2(C)C` [Compound 10, Cryptotanshinone], the “Equivalent Urease” value in assay [1] is 103.05±0.11 µg thiourea activity/mg compou. Also, the inhibition at 10 µg/mL in assay [1] worked out at 29.7 ± 1.16%; in assay [2], 17.46 ± 0.11%; in assay [4], 35.16 ± 0.27%. For the same compound, the 50% inhibitory concentration (IC50) is greater than 337 µM in assay [2] and 95.9 µM in assay [4] (IC50 BChE).
In the case of `Cc1coc2c1C(=O)C(=O)c1c-2ccc2c1CCCC2(C)C` [Compound 5, Tanshinone IIA], the “Equivalent Urease” value in assay [1] is listed as 16.12±0.01 µg thiourea activity/mg compou. Moreover, the inhibition at 10 µg/mL was 14.3 ± 0.42% in assay [1], 32.3 ± 0.44% in assay [2] and 66.3 ± 1.18% in assay [4]. Also, the concentration for half-maximal inhibition (IC50) in assay [2] (setting [8]) is greater than 340 µM; in assay [4] (setting [9]) it was 3.8 µM.

The term IC50 denotes the concentration that gives 50% inhibition.
